Assay results reported in patent publication US20250304700A1, “ANTI-BLOOD DENDRITIC CELL ANTIGEN 2 ANTIBODIES AND USES THEREOF” (Biogen MA Inc., priority 2012, published 2025).
Several values for one entry are separate records, joined by “and”; a condition that tells them apart may be missing. Equal entries are not always repeated.

Columns and labels:
[1] = system: bulk polyclonal human IgG; assay: Cross-interaction chromatography (CIC); type: physicochemical
From the text: Cross-interaction chromatography (CIC) is a high throughput method for preliminary assessment of the stickiness of mAb candidates (Jacobs et al., Pharm Res., 27 (1): 65-71 (2010)). In this method, bulk polyclonal human IgG is chemically coupled to an NHS-activated chromatography resin.

BDCA2 bearing CHO cells = assay: ADCC assay with NK cells; type: cell-based; settings: NK:CHO 5:1, 4 hours
Protocol: The CHO cell line (EAG2456 T1F2 Clone 34.16.7) was used as the target cell. Expression level of BDCA2 on the surface of CHO cells was determined by FACS using an APC-labeled anti-BDCA2 mAb (clone AC144, Miltenyi). NK cells were used as the effector cells and were separated from whole blood by negative selection using the RosetteSep™ Human NK Cell Enrichment Cocktail (Stem Cells Technologies). After a 20 minute incubation with the cocktail at room temperature, NK cells were isolated by discontinuous gradient centrifugation over ficoll. […] The negative control consisted of wells containing CHO and NK cells without antibodies. NK and CHO cells lysed with Tx-100 were used to determine maximal killing. ADCC was evaluated using the Vybrant Cytotoxicity Assay kit (Invitrogen), following the manufacturer's instructions. The assay detects G6PD from damaged cells based on the G6PD-dependent reduction of resazurin which emits fluorescence at 590 nm after excitation at 530 nm. The ADCC assay depicted in FIG. 22 panel A was performed using high BDCA2 expressing CHO cells (panel C) while the ADCC assay in FIG. 22 panel B used CHO cells with lower BDCA2 expression (panel D).

[2] = system: CHO-BDCA2/FcεRIγ stable transfectant cells; assay: CDC assay with rabbit serum complement; type: cell-based; settings: 1 h at 37° C.
Protocol: CHO− BDCA2/FcεRIγ stable transfectant cells (EAG2456 T1F2 Clone 34.16.7) were seeded at 5×10^4 cells in 96 well Collagen black well plates and incubated at 37° C. for 48 hrs. […] Negative control consisted of wells containing CHO cells, rabbit serum complement, and PI, without antibodies. NK and CHO cells lysed with T-100×were used to determine maximal killing. The plates were read using Cytoflour Fluorescence plate reader (ex530/em645).

[3] = system: TLR9-induced IFNα production by PBMC; assay: PBMC assay, TLR9-induced IFNα production; type: cell-based, human; settings: 1 or 5 μM CpG-A, 18 hours
Protocol: PBMCs from heparinized venous blood of healthy donors were isolated by discontinuous gradient centrifugation over Ficoll, washed in PBS and re-suspended in complete culture medium (RPMI with 3% FBS). […] The plates were incubated overnight (18 hours) at 37° C., and the supernatants were collected for evaluation in IFNα ELISA assays (PBL InterferonSource). The assays were performed according to the manufacturer's protocol.
pDCs are the major producers of IFN in response to TLR7 and TLR9 stimulation. pDCs can produce thousand-fold more IFN than any other cell type. […] The plates were incubated overnight (18 hours) at 37° C. and 5% CO2. Supernatants were collected for evaluation in IFNα ELISA assays.

BDCA2 receptor on pDCs = assay: BDCA2 and bound BIIB059 on pDC surface after dosing cynomolgus monkeys; type: in vivo, cynomolgus monkey
From the text: At the same time point (1 hr), some free BDCA2 was observed (13%, 74%, 72% of baseline MFI).
EC10-50-90 curves were generated in GraphPad Prism software using a four-parameter fit.

[4] = system: Sm/RNP immune complexes-induced cytokines by pDCs; assay: Cytokines from Sm/RNP immune complex stimulated purified pDCs; type: cell-based, human; settings: 10 μg/mL BIIB059, 18 hours
Protocol: Specifically, Sm/RNP immune complexes (IC) were pre-formed by mixing sm-RNP from calf thymus and anti-RNP antibodies purified form sera of SLE patients for 1 h in serum-free medium. pDCs from human healthy donors were isolated using a two-step magnetic bead separation procedure (MACS kit, Miltenyi Biotec). […] The plates containing pDCs were incubated for 18 hours at 37° C. and supernatants collected for use in ELISA or multiplex assays to measure concentrations of inflammatory cytokines and chemokines.

[5] = system: type I IFN transcription in purified pDCs; assay: Q-PCR of type I IFN genes in CpG-A stimulated purified pDCs; type: cell-based, human; settings: 5 μM CPG-A, 18 hours
Protocol: pDCs were purified using a two-step magnetic bead separation procedure (MACS kit, Miltenyi Biotec). […] Total assay volume was 200 μl/well. Plates were incubated for 18 hours at 37° C., and RNA was extracted from cells using Trizol reagent (Invitrogen corporation) and further purified using an RNeasy mini column (Qiagen Sciences). All primers and probes were purchased from Applied Biosystems Inc. Relative transcript quantities were determined for each sample by comparison to the oligonucleotide standard curve using Sequence Detection Software (Applied Biosystems Inc.) and normalized to a control (GAPDH).

[6] = system: TLR9-induced IFNα production in whole blood; assay: Whole blood assay, TLR9-induced IFNα production; type: cell-based, human; settings: CpG-A stimulated whole blood
Protocol: Whole blood was drawn from heparinized venous blood of healthy donors. […] CpG-A was added at 200 μg/mL, which was determined to be optimal for stimulation of IFNα production in whole blood. Plates were incubated for 18 hours at 37° C. and supernatants collected for use in IFNα ELISA assays (PBL InterferonSource). The assays were performed according to the manufacturer's protocol. Shown in FIG. 15A is a representative experiment of 6 independent experiments performed.
Specifically, whole blood from 2 SLE patients or 2 healthy donors was provided by Bioreclamation LLC by overnight shipping. […] Plates were incubated for 18 hours at 37° C. and supernatants collected for use in IFNα ELISA assays (PBL InterferonSource). The assays were performed according to the manufacturer's protocol.
CpG-A was added at 75 μg/mL (open square), which was determined to be optimal for stimulation of IFNα production in whole blood. Plates were incubated for 18 hours at 37° C. and supernatants collected for use in IFNα ELISA assays (PBL InterferonSource).
The whole blood was then collected, lysed, and BDCA2 expression was assessed by flow cytometry using the FITC-conjugated non-cross blocking antibody 2D6. […] The supernatants were harvested and evaluated for IFNα by ELISA.

Sequence of BDCA2 receptor on pDCs (as listed by the source): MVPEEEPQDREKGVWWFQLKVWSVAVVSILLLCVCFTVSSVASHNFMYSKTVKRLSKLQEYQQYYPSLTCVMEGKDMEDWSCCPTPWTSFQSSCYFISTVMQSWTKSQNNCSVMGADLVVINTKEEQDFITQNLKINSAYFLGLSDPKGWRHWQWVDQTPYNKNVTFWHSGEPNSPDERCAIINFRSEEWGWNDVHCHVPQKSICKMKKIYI

BIIB059 on the pDC surface (BDCA2 receptor on pDCs; IV 10 mg/kg or 1 mg/kg, from 1 hour post injection)	free BDCA2 (BIIB059-A647 staining) (BDCA2 receptor on pDCs; IV 10 mg/kg or 1 mg/kg, through 38 days, except monkey 5)	BIIB059 on the pDC surface (BDCA2 receptor on pDCs; SC 0.2 mg/kg, at 1 hour, disappeared by 6 hours)	EC10 (ug/mL), Mean (BDCA2 receptor on pDCs; mean of all dosed monkeys) [µg/mL]	EC90 (ug/mL), Mean (BDCA2 receptor on pDCs; mean of all dosed monkeys) [µg/mL]	Substance	Solubility ([1]; CIC data table)	Rt-Test ([1]; IgG-derivatized column)	K′ ([1]; higher K′ values may indicate lower solubility)	Rt-Blank ([1]; non-derivatized column)	killing of BDCA2 bearing CHO cells (BDCA2 bearing CHO cells) [%]	CDC activity, in words [2]	ADCC activity, in words (BDCA2 bearing CHO cells)	average IC50, inhibition of TLR9-induced IFNα production ([3]; PBMC from SLE patients) [µg/mL]	average IC50, inhibition of TLR9-induced IFNα production ([3]; PBMC from healthy donors) [µg/mL]	EC10 (ug/mL), internalization of BDCA2 (BDCA2 receptor on pDCs; IV 10 mg/kg, monkeys 3, 8, 10, 10 mg/kg)	free BDCA2 receptor over time (BDCA2 receptor on pDCs; SC 0.2 mg/kg)	Sm/RNP immune complexes-induced IFNα, TNFα and IL-6 [4]	chemokines induced by Sm/RNP immune complexes (CCL3, CCL4) [4]	transcription of type I IFNs [5]	other cytokines and chemokines in whole blood [6]
–	–	–	–	–	24F4S: hu24F4 H4/L1 with C95S light chain; differs from BIIB059 by 1 amino acid residue	good	9.3	0.022	9.1	100	cell killing by CDC similar to Triton lysis	–	–	–	–	–	–	–	–	–
no BIIB059 was detected on the surface	no free BDCA2	briefly observed on the surface of pDCs	0.064	0.359	BIIB059: humanized IgG1 anti-BDCA2 antibody, mature heavy chain SEQ ID NO: 4 and mature light chain SEQ ID NO: 3	–	–	–	–	–	cell killing by CDC similar to Triton lysis	identical ADCC activity	0.03 ± 0.01	0.04 ± 0.05	0.100 µg/mL and 0.095 µg/mL and 0.114 µg/mL	no free BDCA2 receptor was detected until day 14	potently inhibited	also inhibited	inhibited transcription of all type I IFNs tested	inhibition of a large array of cytokines and chemokines
